Test results: patent publication US6716851B2, “Substituted 2-aryl-4-arylaminopyrimidines and analogs as activators or caspases and inducers of apoptosis and the use thereof” (Cytovia, Inc., priority 2000, dated 2004)

Columns and labels:
ZR-75-1 cells = assay: Caspase cascade activation (N-(Ac-DEVD)-N'-ethoxycarbonyl-R110 fluorogenic substrate) in ZR-75-1 cells; assay type: cell-based, Human; conditions: ZR-75-1, 48 h incubation; for EC50: Homo sapiens, caspase activation potency; for ZR Ratio 48 hr: caspase activity: ratio of net RFU of test compound to control
Experimental: (§1) Human breast cancer cell lines T-47D and ZR-75-1 were grown according to media component mixtures designated by American Type Culture Collection +10% FCS (Invitrogen Corporation, Life Technologies division), in a 5% CO2-95% humidity incubator at 37° C. T-47D and ZR-75-1 cells were maintained at a cell density between 50 and 80% confluency at a cell density of 0.1 to 0.6×10^6 cells/ml. Cells were harvested at 600× g and resuspended at 0.65×10^6 cells/ml into appropriate media +10% FCS. An aliquot of […] of cells was added to a well of a […] microtiter plate containing 2.5 μl of a 10% DMSO in RPMI-1640 media solution containing 0.16 to 100 μM of 4-(3-methoxyanilino)-2-(2-pyridinyl)-6-(trifluoromethyl)pyrimidine or other test compound (0.016 to 10 μM final). An aliquot of 22.5 μl of cells was added to a well of a 384-well microtiter plate containing 2.5 μl of a 10% DMSO in RPMI-1640 media solution without test compound as the control sample. The samples were mixed by agitation and then incubated at 37° C. for 48 h in a 5% CO2-95% humidity incubator. After incubation, the samples were removed from the incubator and 25 μl of a solution containing 14 μM of N-(Ac-DEVD)-N′-ethoxycarbonyl-R110 fluorogenic substrate (Cytovia, Inc.; WO99/18856), 20% sucrose (Sigma), 20 mM DTT (Sigma), 200 mM NaCl (Sigma), 40 mM Na PIPES buffer pH 7.2 (Sigma), and 500 μg/ml lysolecithin (Calbiochem) was added. The samples were mixed by agitation and incubated at room temperature. Using a fluorescent plate reader (Model SpectraMax Gemini, Molecular Devices), an initial reading (T=0) was made approximately 1-2 min after addition of the substrate solution, employing excitation at 485 nm and emission at 530 nm, to determine the background fluorescence of the control sample. After the 3 h incubation, the samples were read for fluorescence as above (T=3 h).
(§2) The Relative Fluorescence Unit values (RFU) were used to calculate the sample readings as follows:
(§3) RFU(T=3h)−Control RFU(T=0)=Net RFU(T=3h)
(§4) The activity of caspase cascade activation was determined by the ratio of the net RFU value for 4-(3-methoxyanilino)-2-(2-pyridinyl)-6-(trifluoromethyl)pyrimidine or other test compound to that of control samples. The EC50 (nM) was determined by a sigmoidal dose-response calculation (Prism 2.0, GraphPad Software Inc.).

T-47D cells = assay: Caspase cascade activation (N-(Ac-DEVD)-N'-ethoxycarbonyl-R110 fluorogenic substrate) in T-47D cells; assay type: cell-based, Human; conditions: 48 h incubation; for EC50: Homo sapiens, T47D, caspase activation potency, read-out: T47 EC50; for T47 Ratio 48 hr: caspase activity: ratio of net RFU of test compound to control
Experimental: as §1, §2, §3, §4

EC50 (ZR-75-1 cells) [nM]	EC50 (T-47D cells) [nM]	SMILES	ZR Ratio 48 hr (ZR-75-1 cells)	T47 Ratio 48 hr (T-47D cells)
> 5000	> 5000	COc1cccc(Nc2nc(-c3ccc(C(F)(F)F)cn3)nc(C)c2Cl)c1 [Example 15, 4-(3-Methoxyanilino)-5-chloro-6-methyl-2-[5-(trifluoromethyl)-2-pyridinyl]pyrimidine]	2.7	2.5
292	288	COc1cccc(Nc2cc(C)nc(-c3ccccn3)n2)c1 [Example 16, 4-(3-Methoxyanilino)-6-methyl-2-(2-pyridinyl)pyrimidine]	3.3	19.5
4900	> 5000	COc1cccc(Nc2nc(-c3ccccn3)ncc2OC)c1 [Example 18, 4-(3-Methoxyanilino)-5-methoxy-2-(2-pyridinyl)pyrimidine]	7.8	1.9
214	471	COc1cccc(Nc2cc(C(F)(F)F)nc(-c3cccnc3)n2)c1 [Example 19, 4-(3-Methoxyanilino)-2-(3-pyridinyl)-6-(trifluoromethyl)pyrimidine]	8.9	16.7
> 5000	> 5000	COCc1cc(Nc2cccc(OC)c2)nc(-c2cccc(C)c2)n1 [Example 20, 4-(3-Methoxyanilino)-6-(methoxymethyl)-2-(3-methylphenyl)pyrimidine]	1.1	1.6
< 156	< 156	COc1ccc(OC)c(Nc2cc(C)nc(-c3ccccn3)n2)c1 [Example 21, 4-(2,5-Dimethoxyanilino)-6-methyl-2-(2-pyridinyl)pyrimidine]	12.0	15.5
6050	> 5000	COc1cccc(Nc2cc(C)nc(-c3ccccn3)n2)c1OC [Example 22, 4-(2,3-Dimethoxyanilino)-6-methyl-2-(2-pyridinyl)pyrimidine]	3.5	1.9
69	19	COc1ccc(OC)c(Nc2cc(C(F)(F)F)nc(-c3cccnc3)n2)c1 [Example 38, 4-(2,5-Dimethoxyanilino)-2-(3-pyridinyl)-6-(trifluoromethyl)pyrimidine]	12.4	8.8
> 5000	521	COc1cccc(Nc2cc(C(F)(F)F)nc(-c3ccncc3)n2)c1 [Example 41, 4-(3-Methoxyanilino)-2-(4-pyridinyl)-6-(trifluoromethyl)pyrimidine]	1.6	7.5
145	43	COc1ccc(OC)c(Nc2cc(C(F)(F)F)nc(-c3ccncc3)n2)c1 [Example 42, 4-(2,5-Dimethoxyanilino)-2-(4-pyridinyl)-6-(trifluoromethyl)pyrimidine]	2.5	5.8
> 5000	> 5000	COCc1cc(Nc2cccc(OC)c2)nc(-c2csc(C)n2)n1 [Example 44, 4-(3-Methoxyanilino)-6-(methoxymethyl)-2-(2-methyl-1-3-thiazol-4-yl)pyrimidine]	1.9	1.6
387	329	COCc1cc(Nc2cc(OC)ccc2OC)nc(-c2csc(C)n2)n1 [Example 45, 4-(2,5-Dimethoxyanilino)-6-(methoxymethyl)-2-(2-methyl-1-3-thiazol-4-yl)pyrimidine]	17.3	21.6
> 5000	> 5000	COc1cccc(Nc2cc(N3CCOCC3)nc(-c3ccccc3)n2)c1 [Example 46, 6-Morpholino-4-(3-methoxyanilino)-2-phenyl-pyrimidine]	1.4	1.5
322	172	COc1ccc(Cl)c(Nc2cc(C(F)(F)F)nc(-c3cccnc3)n2)c1 [Example 50, 4-(2-Chloro-5-methoxyanilino)-2-(3-pyridinyl)-6-(trifluoromethyl)pyrimidine]	5.3	10
56	29	COc1ccc(C)c(Nc2cc(C(F)(F)F)nc(-c3cccnc3)n2)c1 [Example 51, 4-(5-Methoxy-2-methylanilino)-2-(3-pyridinyl)-6-(trifluoromethyl)pyrimidine]	5.9	11
98	108	COc1ccc(Cl)c(Nc2cc(C)nc(-c3ccccn3)n2)c1 [Example 52, 4-(2-Chloro-5-methoxyanilino)-6-methyl-2-(2-pyridinyl)pyrimidine]	7.2	20.9
599	115	COc1ccc(C)c(Nc2cc(C)nc(-c3ccccn3)n2)c1 [Example 53, 4-(5-Methoxy-2-methylanilino)-6-methyl-2-(2-pyridinyl)pyrimidine]	6.6	20.4
101	99	COc1ccc(Cl)c(Nc2cc(C(F)(F)F)nc(-c3ccncc3)n2)c1 [Example 54, 4-(2-Chloro-5-methoxyanilino)-2-(4-pyridinyl)-6-(trifluoromethyl)pyrimidine]	5.9	10.5
18	21	COc1ccc(C)c(Nc2cc(C(F)(F)F)nc(-c3ccncc3)n2)c1 [Example 55, 4-(5-Methoxy-2-methylanilino)-2-(4-pyridinyl)-6-(trifluoromethyl)pyrimidine]	7.1	8.4
> 5000	> 5000	Cn1cc(Br)c(-c2cccc(Nc3cc(C(F)(F)F)nc(-c4cccnc4)n3)c2)n1 [Example 58, 4-[3-(4-Bromo-1-methyl-1H-pyrazol-3-yl)anilino]-2-(3-pyridinyl)-6-(trifluoromethyl)pyrimidine]	1.1	1.5
> 5000	> 5000	Cc1nccc(-c2cccc(Nc3cc(C(F)(F)F)nc(-c4cccnc4)n3)c2)n1 [Example 59, 4-[3-(2-Methyl-pyrimidin-4-yl)anilino]-2-(3-pyridinyl)-6-(trifluoromethyl)pyrimidine]	1.1	1.6
> 5000	> 5000	FC(F)(F)c1cc(Nc2cccc(-c3ccccc3)c2)nc(-c2cccnc2)n1 [Example 60, 4-(3-Phenylanilino)-2-(3-pyridinyl)-6-(trifluoromethyl)pyrimidine]	1.4	1.8
> 5000	> 5000	O=[N+]([O-])c1cccc(-c2cccc(Nc3cc(C(F)(F)F)nc(-c4cccnc4)n3)c2)c1 [Example 61, 4-[3-(3-Nitrophenyl)anilino]-2-(3-pyridinyl)-6-(trifluoromethyl)pyrimidine]	1.2	1.8
	< 150	COc1ccc(OC)c(Nc2cc(C(F)(F)F)nc(-c3cnccn3)n2)c1 [Example 76, 4-(2,5-Dimethoxyanilino)-2-(2-pyrazinyl)-6-(trifluoromethyl)pyrimidine]		8.5
	254	COc1ccc(Cl)c(Nc2cc(C(F)(F)F)nc(-c3cnccn3)n2)c1 [Example 82, 4-(2-Chloro-5-methoxyanilino)-2-(2-pyrazinyl)-6-(trifluoromethyl)pyrimidine]		15.3
	107	Oc1ccc(Cl)c(Nc2cc(C(F)(F)F)nc(-c3cnccn3)n2)c1 [Example 194, 4-(2-Chloro-5-hydroxyanilino)-2-(2-pyrazinyl)-6-trifluoromethylpyrimidine]		11.7
	20	COc1cc(Nc2cc(C(F)(F)F)nc(-c3ccccn3)n2)cc(OC)c1 [Example 195, 4-(3,5-Dimethoxyanilino)-2-(2-pyridinyl)-6-trifluoromethylpyrimidine]		8.4
	527	Cc1ccc(C)c(Nc2cc(C(F)(F)F)nc(-c3cnccn3)n2)c1 [Example 196, 4-(2,5-Dimethylanilino)-2-(2-pyrazinyl)-6-trifluoromethylpyrimidine]		11.3
